We go through ten compounds from PubChem BioAssay AID2060498 (Molecular Pharmacology Branch, DTP, NCI, 2025).

The test system of this experiment is 171881-019-R-J1-PDC tumor spheroids, viability. The experiment can be described thus: Anticancer human tumor 171881-019-R-J1-PDC patient-derived invasive breast carcinoma cell line growth inhibition [GQUAD]. The note with it: spheroids with HUVEC and MSC; for viability, T/C: stronger effect = lower value. An excerpt: DNA G-quadruplex Stabilizer Agents in Combinations in Complex Spheroids
A high-throughput screen of multi-cell type tumor spheroids was designed to identify active combinations of DNA G-quadruplex stabilizer agents and targeted small molecules. Complex spheroids include a stromal component modeled by human endothelial cells (HUVEC) and fibroblasts modeled by human mesenchymal stem cells (MSCs). The concentration ranges selected for each drug and investigational agent were based upon clinically achievable concentrations if the clinical Cmax of the agent was known.
Compounds. The drugs and investigational agents: pidnarulex (CX-5461; NSC782164), APTO-253 (NSC789042), BRACO-19 (NSC847499), peposertib (NSC802822), ceralasertib (NSC780249), elimusertib (NSC800525), camonsertib (NSC841442), AZD-1390 (NSC803789), olaparib (NSC753686), talazoparib (NSC767125), ART-558 (NSC835418), sotorasib (NSC818433), MRTX-1133 (NSC836407), SN-38 (NSC673596), topotecan (NSC609699), etoposide (NSC141540), doxorubicin (NSC123127), gemcitabine (NSC613327), 5-fluorouracil (NSC19893), paclitaxel (NSC125973), vemurafenib (NSC761431), panobinostat (NSC761190), R-306465 (JNJ-16241199; NSC773264), adavosertib (NSC754352), TP-3654 (NSC805149), carboplatin (NSC241240), KSQ-4279 (NSC840948), and staurosporine (NSC755774) were obtained from the National Cancer Institute (NCI) Developmental Therapeutics Program Chemical Repository (34). The FDA-approved anticancer drug set is available from the NCI Developmental Therapeutics Program. […] The stock solutions were prepared in dimethyl sulfoxide (DMSO, Sigma-Aldrich, St. Louis, MO, cat. D2650) at 800-fold the tested concentration and stored at -70 degrees C prior to their use. All drugs and investigational agents were tested over a range starting from a high concentration at or near the clinical Cmax and decreasing in half-log increments. If the clinical Cmax for an agent had not been determined, the highest concentration tested was 10 microM.
2.3 Cell Culture. All cells were maintained in an incubator at 37 degrees C and 5% CO2 with 95% humidity. The PDC lines were cultured according to standard operating procedures established by the NCI PDMR. All PDCs were thawed and cultured in Matrigel-coated flasks prepared with a working solution of 1X Ham's F-12 nutrient mix, without supplementation (Invitrogen, cat. 11765054), 100 U/mL penicillin-streptomycin (Invitrogen, cat. 15140122), and 2.5% Matrigel (Corning Inc., cat. 354248) for the first three passages. The 857933-349-R-J2-PDC line was cultured in 6C/Colon 1B media, which includes advanced DMEM/F-12 (Thermo Fisher Scientific, cat. 12634028), 10 mM HEPES (Thermo Fisher Scientific, cat. 15630080), 1X GlutaMAX supplement (Thermo Fisher Scientific, cat. 35050061), 0.1 mg/mL primocin (InvivoGen, cat. ant-pm-2), 10% defined fetal bovine serum, heat inactivated (HyClone Laboratories Inc., cat. SH30070.03HI), 50% L-WRN conditioned media (ATCC, cat. CRL-3276), 1.25 mM N-Acetyl-L-cysteine (Sigma-Aldrich, cat. A9165), 10 mM nicotinamide (Sigma-Aldrich, cat. N0636), 1X B-27 supplement (Thermo Fisher Scientific, cat. 17504044), 1X N-2 supplement (Thermo Fisher Scientific, cat. 17502048), 10 microM Y-27632 dihydrochloride (Tocris Bioscience, cat. 1254), and 50 ng/mL human EGF recombinant protein (Thermo Fisher Scientific, cat. PHG0311). The 485176-168-R4-J1-PDC line was cultured in Panc media, which includes all 6C/Colon 1B media components plus 100 ng/mL human FGF-10 (Thermo Fisher Scientific, cat. 100-26), 500 nM SB-431542 (Selleckchem, cat. S1067), and gastrin (Tocris, cat. 3006).
[…]

Each structure is given as a SMILES string. “And” between values parts separate entries of the source, which are not always exact repeats. Identical values can stand only once.
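Note: spheroids exposed to compounds for 7 days.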

Broadly, the viability, T/C is the ratio of treated to control. As usually defined, the IC50 is the concentration needed to halve the response being measured. As to `C=CC(=O)N1CCN(c2nc(=O)n(-c3c(C)ccnc3C(C)C)c3nc(-c4c(O)cccc4F)c(F)cc23)C(C)C1` (centres undefined), the viability, T/C was 85.8% and 97% and 88.1% (compound 0.0316 µM); 94.8% and 102% and 105% (compound 0.1 µM); 101% (2×) and 104% (compound 0.316 µM); 104% (2×) and 108% (compound 1 µM); 96.7% and 93.7% and 96.9% (compound 3.16 µM); 51.8% and 53.1% and 55.6% (compound 10 µM). The IC50 (curve of compound) was greater than 10 µM.
Consider `CC(=O)O[C@H]1C(=O)[C@@]2(C)[C@H]([C@H](OC(=O)c3ccccc3)[C@]3(O)C[C@H](OC(=O)[C@H](O)[C@@H](NC(=O)c4ccccc4)c4ccccc4)C(C)=C1C3(C)C)[C@]1(OC(C)=O)CO[C@@H]1C[C@@H]2O`, for which the viability, T/C by setting is: (compound 0.0316 µM) 50.5% and 44.8% and 33.4%; (compound 0.1 µM) 32.6% and 33.4% and 25.7%; (compound 0.316 µM) 32% and 29.3% and 21.5%; (compound 1 µM) 29.8% and 26.7% and 22.8%; (compound 3.16 µM) 29.6% and 24.3% and 23.2%; (compound 10 µM) 29.6% (2×) and 24%. Also, the IC50 (curve of compound) was less than 0.0316 µM.
As for `CC(C)n1c(=O)n(C)c2cnc3cc(F)c(-c4ccc(OCCCN5CCCCC5)nc4)cc3c21`, the viability, T/C is, setting by setting: (compound 0.0316 µM) 93.2% and 98.1% and 85.8%; (compound 0.1 µM) 95.7% and 88.2% and 81.6%; (compound 0.316 µM) 96.2% and 94.4% and 102%; (compound 1 µM) 74.8% and 82.3% and 78.2%; (compound 3.16 µM) 55.2% and 38.8% and 51.6%; (compound 10 µM) 20.5% and 11.7% and 18.7%. Besides, the IC50 (curve of compound) was 3.59 µM and 2.35 µM and 3.27 µM.
Take `CC1COCCN1c1cc(-c2ccnn2C)c2ccnc(-c3ccn[nH]3)c2n1` (centres undefined): the viability, T/C is 65.6% and 74.5% and 75.8% (compound 0.0316 µM); 35.5% and 31.4% and 31.2% (compound 0.1 µM); 15.8% and 12.9% and 15.2% (compound 0.316 µM); 8.71% and 4.99% and 7.86% (compound 1 µM); 5% and 2.03% (compound 3.16 µM); 4.63% and 1.67% and 5.37% (compound 10 µM). Also, the IC50 (curve of compound) was 0.0574 µM and 0.061 µM and 0.062 µM.
Take `CC1COCCN1c1cc(C2(O)CC3CCC(C2)O3)c2cnn(-c3ccn[nH]3)c2n1` (centres undefined): the viability, T/C reads like this: (compound 0.0316 µM) 52.1% and 55.1% and 56%; (compound 0.1 µM) 21.3% and 20.7% and 15.9%; (compound 0.316 µM) 9.11% and 9.51% and 6.18%; (compound 1 µM) 6.21% and 5.84% and 2.3%; (compound 3.16 µM) 4.07% and 4.22% and 1.52%; (compound 10 µM) 3.07% and 3.7% and 0.82%. The IC50 (curve of compound) is 0.0338 µM and 0.0374 µM and 0.0373 µM.
Turning to `CC1COCCN1c1cc(C2(S(C)(=N)=O)CC2)nc(-c2ccnc3[nH]ccc23)n1` (centres undefined), the viability, T/C is 106% and 98.7% and 79.5% (compound 0.0316 µM); 97.3% and 97.8% and 89.9% (compound 0.1 µM); 93.4% and 89.1% and 82.5% (compound 0.316 µM); 59.2% and 58.9% and 55.1% (compound 1 µM); 18.7% and 17.7% and 17% (compound 3.16 µM); 9.35% and 7.04% and 9.31% (compound 10 µM). Further, under “curve of compound”, the IC50 is 1.29 µM and 1.27 µM and 1.17 µM.
`CC[C@@]1(O)C(=O)OCc2c1cc1n(c2=O)Cc2cc3c(CN(C)C)c(O)ccc3nc2-1`: the viability, T/C (compound 0.000999 µM) is 84.9% and 109% and 105%; the viability, T/C (compound 0.00316 µM) was 89.6% and 94.4% and 100%; the viability, T/C (compound 0.00999 µM) is 96.2% and 103% and 85.5%; the viability, T/C (compound 0.0316 µM) was 88.4% and 94.7% and 87.2%; the viability, T/C (compound 0.0999 µM) is 48.2% and 59.4% and 42.4%; the viability, T/C (compound 0.316 µM) is 35.1% (2×) and 48.3%. For the same compound, for the setting “curve of compound”, the IC50 was 0.095 µM and 0.266 µM and 0.0831 µM.
Turning to `CCc1c2c(nc3ccc(O)cc13)-c1cc3c(c(=O)n1C2)COC(=O)[C@]3(O)CC`, the viability, T/C was 77.2% and 89.1% and 77.4% (compound 0.000999 µM); 38.9% and 53.4% and 39.7% (compound 0.00316 µM); 37.3% and 53.9% and 33% (compound 0.00999 µM); 32% and 42.5% and 33.4% (compound 0.0316 µM); 27.4% and 34.3% and 26% (compound 0.0999 µM); 23.4% and 26.1% and 21.4% (compound 0.316 µM). For the same compound, the IC50 (curve of compound) is 0.00246 µM and 0.00866 µM and 0.00244 µM.
Consider `CN(C)c1ccc(Nc2c3ccc(NC(=O)CCN4CCCC4)cc3nc3cc(NC(=O)CCN4CCCC4)ccc23)cc1`, for which the viability, T/C is 97.6% [middle of 12 runs] (compound 0.0316 µM); 99.5% [middle of 12 runs] (compound 0.1 µM); 20% [middle of 12 runs] (compound 1 µM); 1.98% [middle of 11 runs] (compound 3.16 µM); 0.43% [middle of 12 runs] (compound 10 µM). For the same compound, the IC50 (compound alone, run of 02/26/2024) was 548 nM [middle of 12 runs].
Regarding `COc1cc(C2c3cc4c(cc3C(OC3OC5COC(C)OC5C(O)C3O)C3COC(=O)C23)OCO4)cc(OC)c1O` (centres undefined), the viability, T/C runs as follows: (compound 0.0316 µM) 96.6% and 95.8% and 105%; (compound 0.1 µM) 89.9% and 93.5% and 94.8%; (compound 0.316 µM) 74.2% and 73.8% and 92.6%; (compound 1 µM) 47.9% and 42.6% and 70.5%; (compound 3.16 µM) 32.8% and 30.4% and 55.1%; (compound 10 µM) 23.5% and 21.9% and 44.2%. Further, the IC50 (curve of compound) was 0.956 µM and 0.784 µM and 5.26 µM.
